# How the values were obtained:
# 5-HT1A receptor = test system: 5-HT1A receptor; set-up: method as in PMID 27508501; conditions: higher potency than its inhibition of SERT activity; cited from earlier work
# [1] = set-up: method as in PMID 21869687, PMID 25500685; conditions: clinically observed; cited from earlier work
# CUMS mice [2] = conditions: all tested dosages, i.p.
# c-Fos [3] = assay: c-Fos immunohistochemistry in mPFC of CUMS mice; type: in vivo, mouse; conditions: 10 mg/kg i.p.
# Method: Figure 7 SYR effects on the expression of c-Fos and synaptic proteins in mPFC. (A) Representative immunohistochemical images of c-Fos expression in mPFC under the indicated treatments. Immunohistochemistry of c-Fos was performed with mPFC slices as described in Section 4. The slices were re-probed with anti-DAPI antibody. Immunofluorescence images for c-Fos (green) and DAPI (blue) were acquired by confocal microscopy. (B) Quantitative analysis for c-Fos expression in mPFC with various treatments. Protein expression is expressed as a percentage of c-Fos fluorescence measured in the control group. Bars represent the mean ± SEM (n = 4). * p < 0.05, ** p < 0.01 compared with the control or CUMS group by one-way ANOVA followed by post hoc tests, respectively. (C) Representative immunoblots of the synaptic proteins BDNF, PSD-95, GluA1, and vGluT1 with various treatments. (D–G) Quantification of the expression of the synaptic proteins BDNF (D), PSD-95 (E), GluA1 (F), and vGluT1 (G). The expression level is expressed as a percentage of the integrated density obtained from the control group. Bars represent the mean ± SEM (n = 4). * p < 0.05, ** p < 0.01 by one-way ANOVA followed by post hoc tests.
# Mouse mPFC and hippocampal slices were prepared as previously described. […]
# CUMS mice [4] = assay: Forced swim test (FST) in CUMS mice; type: in vivo, mouse; conditions: 10 mg/kg, i.p., 2 weeks
# Method: (§1) C57BL/6 adult (6–8 weeks, body weight, 18–22 g) male mice were maintained and handled in a standard condition at the Experimental Animal Center of Southern Medical University (Guangzhou, China). Animal use was approved by the Animal Use and Care Committee of Southern Medical University (approved code: SMUL2021177, approved date: 12 December 2021). The CUMS procedure was carried out according to a protocol described previously. Except for those in the control group, mice were randomly exposed to two mild unpredictable stressors per day for 3 weeks. The stressors included water deprivation, restraint, tilted cage, wet/no bedding, rotation, peppermint, noise, and inverted light off/on. Mice in the control group were group housed without any stressors throughout the procedure. […] NSFT was performed after 16 h food deprivation, as described previously. The mouse was placed in an open field (24 × 40 × 14 cm), where a new chow was put in the center, and the latency time to bite food was counted over 10 min. Home cage feeding within a 20 min period was measured after the test. FST was carried out according to a protocol described previously. The mouse was placed into a beaker (Bomex, Beijing, China) with a height of 18 cm filled with water (22 ± 1 °C) for 6 min. The immobile time was measured during minutes 2–6. TST was performed according to a previous description. The mouse was suspended from a hook that hung from a suspension bar by placing a piece of adhesive tape on its tail about 1 cm away from the tip. The immobile time during minutes 2–6 was measured.
# CUMS mice [5] = assay: Home cage food consumption after NSFT; type: in vivo, mouse; conditions: all tested dosages, in comparison with the control group
# Method: Figure 6 Animal behavioral tests. (A) Schematic illustration of animal behavioral test timeline. Mice were exposed to CUMS for 3 weeks, as described in Section 4. […] For the CUMS group, saline was given instead of drugs. NSFT was performed after 16–18 h food deprivation, followed by FST and TST. (B) NSFT. The latency time to food in NSFT was counted. (C) Home cage food consumption. Food consumed by individual mice in the home cage (g) within a 20 min period was measured after NSFT. (D) FST. The immobility time during a 2 to 6 min period in FST was measured. (E) TST. The immobility time during 2 to 6 min was counted. n = 8–10 mice/group. Bars represent the mean ± SEM. * p < 0.05 compared with the control or CUMS group, respectively, by one-way ANOVA followed by post hoc tests. ns, not significant.
# NSFT was performed after 16 h food deprivation, as described previously. The mouse was placed in an open field (24 × 40 × 14 cm), where a new chow was put in the center, and the latency time to bite food was counted over 10 min. Home cage feeding within a 20 min period was measured after the test. FST was carried out according to a protocol described previously. The mouse was placed into a beaker (Bomex, Beijing, China) with a height of 18 cm filled with water (22 ± 1 °C) for 6 min. The immobile time was measured during minutes 2–6. […] The immobile time during minutes 2–6 was measured.
# CUMS mice [6] = assay: Novelty suppressed feeding test (NSFT) in CUMS mice; type: in vivo, mouse; conditions: 10 mg/kg, i.p., 2 weeks
# Method: as §1
# CUMS mice [7] = assay: Tail suspension test (TST) in CUMS mice; type: in vivo, mouse; conditions: 10 mg/kg, i.p., 2 weeks
# Method: as §1
# [8] = test system: BDNF, PSD-95, GluA1, and vGluT1; assay: Immunoblot of synaptic proteins in hippocampus of CUMS mice; type: in vivo, mouse; conditions: same dosage as fluoxetine (10 mg/kg i.p.)
# Description: (§2) Figure 8 SYR effects on the expression of c-Fos and synaptic proteins in the hippocampus. (A) Representative immunohistochemical images of c-Fos expression in the hippocampus with the indicated treatments. (B) Quantitative analysis for hippocampal c-Fos expression with various treatments. Protein expression level is expressed as a percentage of c-Fos fluorescence measured in the control group. Bars represent the mean ± SEM (n = 4). ** p < 0.01 compared with the control or CUMS group by one-way ANOVA followed by post hoc tests. (C) Representative immunoblots of the synaptic proteins BDNF, PSD-95, GluA1, and vGluT1 with various treatments. (D–G) Quantification of the expression of synaptic proteins BDNF (D), PSD-95 (E), GluA1 (F), and vGluT1 (G). The expression level is expressed as a percentage of the integrated density obtained from the control group. Bars represent the mean ± SEM (n = 4). * p < 0.05, ** p < 0.01 by one-way ANOVA followed by post hoc tests.
# Synaptic proteins were extracted from mPFC or hippocampus tissues using RIPA lysis buffer, respectively. Expression of the indicated proteins under various treatments was then analyzed by immunoblotting, as previously reported. […] Quantification of immunoreactive protein bands was performed using Image J v1.53u, and GAPDH was used as an internal reference to normalize expression levels of those proteins, respectively.
# c-Fos [9] = assay: c-Fos immunohistochemistry in hippocampus of CUMS mice; type: in vivo, mouse; conditions: same dosage as fluoxetine (10 mg/kg i.p.)
# Description: as §2
# Mouse mPFC and hippocampal slices were prepared as previously described. Briefly, mice were deeply anesthetized with 4% pentobarbital sodium (Sigma-Aldrich, Saint Louis, MI, USA), and perfused transcardially with PBS, followed by 4% phosphate-buffered paraformaldehyde. […]
# [10] = Daily body weight during drug administration; conditions: all tested dosages, 14-day administration, in comparison with the control group
Compound,action at 5-HT1A receptor (5-HT1A receptor),sexual dysfunction [1],weight gain [1],fatality rate (CUMS mice [2]),CUMS-induced decrease in expression of c-Fos in mPFC (c-Fos [3]),CUMS-induced increase in immobility in FST (CUMS mice [4]),home cage food consumption (CUMS mice [5]),CUMS-induced increase in latency to food in NSFT (CUMS mice [6]),CUMS-induced increase in immobility in TST (CUMS mice [7]),CUMS-induced decrease in expression of synaptic proteins in the hippocampus [8],CUMS-induced decrease in expression of c-Fos in the hippocampus (c-Fos [9]),daily body weight changes [10]
N#Cc1ccc2[nH]cc(CCCCN3CCN(c4ccc5oc(C(N)=O)cc5c4)CC3)c2c1 [vilazodone],partial agonist,not associated with sexual dysfunction,reduce weight gain,–,–,–,–,–,–,–,–,–
"CNCCC(Oc1ccc(C(F)(F)F)cc1)c1ccccc1 (stereo not drawn) [fluoxetine, reference compound]",–,–,–,zero fatality rate,reversed,remarkably alleviated,little effect,remarkably alleviated,remarkably alleviated,effectively alleviate,effectively alleviate,little effect

# Reference: publication PMC11678425, “(-)-Syringaresinol Exerts an Antidepressant-like Activity in Mice by Noncompetitive Inhibition of the Serotonin Transporter” (Pharmaceuticals, 2024)
